# According to patent publication US4272437A, “Antibacterial agents, and 4-thio azetidinone intermediates” (priority 1979, dated 1981):
# Like-named read-outs stand apart in the source and are kept apart here.
# Experiments:
# [1] = tested on: Pr. vulgaris A-9716; assay: MIC, tube dilution, Proteus vulgaris / Proteus mirabilis A9716; type: cell-based, Proteus vulgaris (name changed to Proteus mirabilis); conditions: overnight 37° C.; for MIC: Proteus vulgaris; for Minimum Inhibitory Concentration (M.I.C.): Proteus vulgaris / Proteus mirabilis A9716
# Text: (§1) Representative compounds of the present invention were subjected to in vitro antibiotic screening against a variety of microorganisms.
# [2] = tested on: Staph. aureus A-9537 and 50% serum; assay: MIC, tube dilution, Staph. aureus A9537 + 50% serum; type: cell-based, Staphylococcus aureus; conditions: overnight 37° C.; for MIC: Staphylococcus aureus, read-out: Minimum Inhibitory Concentration (M.I.C.)
# Text: as §1
# [3] = tested on: Ps. aeruginosa A-21213; assay: MIC, tube dilution, Pseudomonas aeruginosa A21213; type: cell-based; conditions: Pseudomonas aeruginosa A21213, overnight 37° C.; for MIC: read-out: Minimum Inhibitory Concentration (M.I.C.)
# Text: as §1
# [4] = tested on: Ps. aeruginosa A-9843A; assay: MIC, tube dilution, Pseudomonas aeruginosa A9843A; type: cell-based; conditions: overnight 37° C.; for MIC: Pseudomonas aeruginosa, A9843A, read-out: Minimum Inhibitory Concentration (M.I.C.), Pseudomonas aeruginosa A9843A; for Minimum Inhibitory Concentration (M.I.C.): Pseudomonas aeruginosa A9843A
# Text: as §1
# [5] = tested on: Providencia stuartii A21205; assay: MIC, tube dilution, Providencia stuartii (Pr. rettgeri) A21205; type: cell-based; conditions: for MIC: Providencia stuartii; for Minimum Inhibitory Concentration (M.I.C.): Providencia stuartii (Pr. rettgeri) A21205
# Text: as §1
# [6] = tested on: K. pneumoniae A-15130; assay: MIC, tube dilution, Klebsiella pneumoniae A15130; type: cell-based; conditions: overnight 37° C.; for MIC: Klebsiella pneumoniae, A15130, K. pneumoniae A15130, read-out: Minimum Inhibitory Concentration (M.I.C.); for Minimum Inhibitory Concentration (M.I.C.): K. pneumoniae A15130
# Text: as §1
# [7] = tested on: Str. pneumoniae A-9585; assay: MIC, tube dilution, Streptococcus pneumoniae A9585; type: cell-based; conditions: overnight 37° C., Nutrient Broth; for MIC: Streptococcus pneumoniae, A9585, Str. pneumoniae A9585, read-out: Minimum Inhibitory Concentration (M.I.C.); for Minimum Inhibitory Concentration (M.I.C.): Str. pneumoniae A9585
# Text: as §1
# [8] = tested on: Klebsiella species A20468; assay: MIC, tube dilution, Klebsiella species A20468; type: cell-based; conditions: Klebsiella species (K. pneumoniae) A20468, overnight 37° C.; for MIC: read-out: Minimum Inhibitory Concentration (M.I.C.)
# Text: as §1
# [9] = tested on: Ent. cloacae A-9659; assay: MIC, tube dilution, Enterobacter cloacae A9659; type: cell-based; conditions: overnight 37° C.; for MIC: Enterobacter cloacae, A9659, Enterobacter cloacae A9659, read-out: Minimum Inhibitory Concentration (M.I.C.); for Minimum Inhibitory Concentration (M.I.C.): Enterobacter cloacae A9659
# Text: as §1
# [10] = tested on: E. coli A-20341-1; assay: MIC, tube dilution, Escherichia coli A20341-1; type: cell-based; conditions: E. coli A20341-1, overnight 37° C.; for MIC: Escherichia coli, A203411, read-out: Minimum Inhibitory Concentration (M.I.C.)
# Text: as §1
# [11] = tested on: Pr. mirabilis A-9900; assay: MIC, tube dilution, Proteus mirabilis A9900; type: cell-based; conditions: overnight 37° C.; for MIC: Proteus mirabilis, A9900, Proteus mirabilis A9900, read-out: Minimum Inhibitory Concentration (M.I.C.); for Minimum Inhibitory Concentration (M.I.C.): Proteus mirabilis A9900
# Text: as §1
# [12] = tested on: Pr. morganii A-15153; assay: MIC, tube dilution, Proteus morganii A15153; type: cell-based; conditions: overnight 37° C.; for MIC: Morganella morganii, A15153, Proteus morganii A15153, read-out: Minimum Inhibitory Concentration (M.I.C.); for Minimum Inhibitory Concentration (M.I.C.): Proteus morganii A15153
# Text: as §1
# [13] = tested on: Staph. aureus (Meth-Res) A-15097; assay: MIC, tube dilution, Staphylococcus aureus A15097 (Meth-Res); type: cell-based; conditions: overnight 37° C.; for MIC: Staphylococcus aureus
# Text: as §1
# [14] = tested on: Staph. aureus (Pen-Res) A-9606; assay: MIC, tube dilution, Staphylococcus aureus A9606 (Pen-Res); type: cell-based; conditions: overnight 37° C.; for MIC: Staphylococcus aureus
# Text: as §1
# [15] = tested on: Ser. marcescens A-20019; assay: MIC, tube dilution, Serratia marcescens A20019; type: cell-based; conditions: overnight 37° C.; for MIC: Serratia marcescens, A20019, Serratia marcescens A20019, read-out: Minimum Inhibitory Concentration (M.I.C.); for Minimum Inhibitory Concentration (M.I.C.): Serratia marcescens A20019
# Text: as §1
# [16] = tested on: Staph. aureus A-9537; assay: MIC, tube dilution, Staphylococcus aureus A9537; type: cell-based; conditions: overnight 37° C., Nutrient Broth; for MIC: Staphylococcus aureus, A9537, Staph. aureus A9537, read-out: Minimum Inhibitory Concentration (M.I.C.); for Minimum Inhibitory Concentration (M.I.C.): Staph. aureus A9537
# Text: as §1
# [17] = tested on: Str. pyogenes A-9604; assay: MIC, tube dilution, Streptococcus pyogenes A9604; type: cell-based; conditions: overnight 37° C., Nutrient Broth; for MIC: Streptococcus pyogenes, A9604, Str. pyogenes A9604, read-out: Minimum Inhibitory Concentration (M.I.C.); for Minimum Inhibitory Concentration (M.I.C.): Str. pyogenes A9604
# Text: as §1
# [18] = tested on: E. coli A-15119; assay: MIC, tube dilution, Escherichia coli A15119; type: cell-based; conditions: overnight 37° C.; for MIC: Escherichia coli, A15119, E. coli A15119, read-out: Minimum Inhibitory Concentration (M.I.C.); for Minimum Inhibitory Concentration (M.I.C.): E. coli A15119
# Text: as §1
# [19] = tested on: Str. faecalis A-20688; assay: MIC, tube dilution, Streptococcus faecalis A20688; type: cell-based; conditions: overnight 37° C.; for MIC: Enterococcus faecalis, A20688, Str. faecalis A20688, read-out: Minimum Inhibitory Concentration (M.I.C.); for Minimum Inhibitory Concentration (M.I.C.): Str. faecalis A20688
# Text: as §1
# [20] = tested on: Ent. cloacae A-9656; assay: MIC, tube dilution, Enterobacter cloacae A9656; type: cell-based; conditions: overnight 37° C.; for MIC: read-out: Minimum Inhibitory Concentration (M.I.C.)
# Text: as §1
# [21] = A9716, Proteus vulgaris / Proteus mirabilis A9716, read-out: Minimum Inhibitory Concentration (M.I.C.)
# [22] = A21205, Providencia stuartii (Pr. rettgeri) A21205, overnight 37° C., read-out: Minimum Inhibitory Concentration (M.I.C.)
# [23] = Staph. aureus A9606 (Pen-Res), read-out: Minimum Inhibitory Concentration (M.I.C.)
# [24] = Staph. aureus A15097 (Meth-Res)
# [25] = read-out: Minimum Inhibitory Concentration (M.I.C.), Staph. aureus A15097 (Meth-Res)
# [26] = A9716, read-out: Minimum Inhibitory Concentration (M.I.C.), Proteus vulgaris / Proteus mirabilis A9716
# [27] = A21205, read-out: Minimum Inhibitory Concentration (M.I.C.)
# [28] = read-out: Minimum Inhibitory Concentration (M.I.C.), Staph. aureus A9606 (Pen-Res)
Compound,"MIC [1, 21] [µg/mL]",MIC [2] [µg/mL],MIC [3] [µg/mL],MIC [4] [µg/mL],"MIC [5, 22] [µg/mL]",MIC [6] [µg/mL],MIC [7] [µg/mL],MIC [8] [µg/mL],MIC [9] [µg/mL],MIC [10] [µg/mL],MIC [11] [µg/mL],MIC [12] [µg/mL],"MIC [14, 23] [µg/mL]",MIC [15] [µg/mL],MIC [16] [µg/mL],MIC [17] [µg/mL],MIC [18] [µg/mL],MIC [19] [µg/mL],MIC ([20]; Enterobacter cloacae A9656) [µg/mL],Minimum Inhibitory Concentration (M.I.C.) [1] [µg/mL],further results
"O=C(O)C1=C(COc2ccccc2)S[C@@H]2CC(=O)N12 [Preparation 12, 2-Phenoxymethylpenem-3-carboxylic Acid]",16,> 63,> 125,> 125,63,> 125,0.5,> 125,> 125,> 125,16,16,0.5,> 125,1,0.5,63,63,> 125,,"MIC ([13]; Staph. aureus A15097 (Meth-Res), read-out: Minimum Inhibitory Concentration (M.I.C.)): 1 µg/mL"
6-Acetoxymethyl-2-methylpenem-3-carboxylic Acid [Example 2],,,,,,,,,,,,,,,,,,,,63,"Minimum Inhibitory Concentration (M.I.C.) [2]: > 63 µg/mL; Minimum Inhibitory Concentration (M.I.C.) [3]: > 125 µg/mL; Minimum Inhibitory Concentration (M.I.C.) [4]: > 125 µg/mL; Minimum Inhibitory Concentration (M.I.C.) ([5]; overnight 37° C.): 32 µg/mL; Minimum Inhibitory Concentration (M.I.C.) [6]: 63 µg/mL; Minimum Inhibitory Concentration (M.I.C.) [7]: 1 µg/mL; Minimum Inhibitory Concentration (M.I.C.) [8]: > 125 µg/mL; Minimum Inhibitory Concentration (M.I.C.) [9]: 125 µg/mL; Minimum Inhibitory Concentration (M.I.C.) [10]: 32 µg/mL; Minimum Inhibitory Concentration (M.I.C.) [11]: 63 µg/mL; Minimum Inhibitory Concentration (M.I.C.) [12]: 63 µg/mL; Minimum Inhibitory Concentration (M.I.C.) [13, 24]: 8 µg/mL; Minimum Inhibitory Concentration (M.I.C.) ([14]; Staph. aureus A9606 (Pen-Res)): 4 µg/mL; Minimum Inhibitory Concentration (M.I.C.) [15]: 125 µg/mL; Minimum Inhibitory Concentration (M.I.C.) [16]: 8 µg/mL; Minimum Inhibitory Concentration (M.I.C.) [17]: 2 µg/mL; Minimum Inhibitory Concentration (M.I.C.) [18]: 32 µg/mL; Minimum Inhibitory Concentration (M.I.C.) [19]: 63 µg/mL; Minimum Inhibitory Concentration (M.I.C.) ([20]; Enterobacter cloacae A9656): > 125 µg/mL"
"O=C(O)C1=C(Cc2cccs2)SC2CC(=O)N12 (stereo not drawn) [Preparation 8, 2-(2'-Thienyl)methyl-penem-3-carboxylic Acid]",1,> 63,> 125,> 125,1,32,0.016,> 125,16,> 125,0.5,1,4,32,< 0.008,0.03,1,32,,,"MIC [13, 25]: > 125 µg/mL; MIC ([20]; Enterobacter cloacae, A9656, Enterobacter cloacae A9656): 16 µg/mL"
"O=C([O-])C1=C(COCc2ccccc2)S[C@@H]2CC(=O)N12.[Na+] [Preparation 14 (Na^+ Salt), Sodium 2-(Benzyloxymethyl)penem-3-carboxylate]",,32,> 125,> 125,,125,0.03,> 125,32,> 125,2,16,,63,0.5,0.06,16,32,125,2,"MIC [1, 26]: 4 µg/mL; Minimum Inhibitory Concentration (M.I.C.) [2]: 63 µg/mL; MIC [5, 27]: 63 µg/mL; Minimum Inhibitory Concentration (M.I.C.) [6]: > 125 µg/mL; Minimum Inhibitory Concentration (M.I.C.) [9]: 63 µg/mL; Minimum Inhibitory Concentration (M.I.C.) [11]: 1 µg/mL; MIC [13, 25]: > 125 µg/mL; MIC [14, 28]: 32 µg/mL; Minimum Inhibitory Concentration (M.I.C.) [15]: 125 µg/mL; Minimum Inhibitory Concentration (M.I.C.) [18]: 8 µg/mL"
"CCC1C(=O)N2C(C(=O)[O-])=C(C)S[C@H]12.[Na+] (stereo partly drawn) [1 (cis), Sodium 6-Ethyl-2-methylpenem-3-carboxylate]",,> 63,> 125,> 125,,> 125,4,> 125,> 125,125,125,> 125,,> 125,8,4,125,63,> 125,,"MIC [1, 26]: 63 µg/mL; MIC [5, 27]: 63 µg/mL; Minimum Inhibitory Concentration (M.I.C.) [13, 24]: 63 µg/mL; MIC [14, 28]: 16 µg/mL"
"O=C(O)C1=C(CCCCN2C(=O)c3ccccc3C2=O)SC2CC(=O)N12 (stereo not drawn) [Example 43, 2-(4'-Phthalimido-1'-butyl)penem-3-carboxylic Acid]",16,63,> 125,> 125,63,> 125,0.016,> 125,> 125,> 125,32,32,16,16,0.03,0.25,63,16,125,,"MIC [13, 25]: > 125 µg/mL"
"O=C(O)C1=C(COc2ccccc2)S[C@@H]2CC(=O)N12 [Example 11, 2-Phenoxymethylpenem-3-carboxylic Acid]",,,,,,,,,,,,,,,,,,,,16,"Minimum Inhibitory Concentration (M.I.C.) [2]: 63 µg/mL; Minimum Inhibitory Concentration (M.I.C.) [3]: > 125 µg/mL; Minimum Inhibitory Concentration (M.I.C.) [4]: > 125 µg/mL; Minimum Inhibitory Concentration (M.I.C.) ([5]; overnight 37° C.): 63 µg/mL; Minimum Inhibitory Concentration (M.I.C.) [6]: > 125 µg/mL; Minimum Inhibitory Concentration (M.I.C.) [7]: .5 µg/mL; Minimum Inhibitory Concentration (M.I.C.) [8]: > 125 µg/mL; Minimum Inhibitory Concentration (M.I.C.) [9]: > 125 µg/mL; Minimum Inhibitory Concentration (M.I.C.) [10]: > 125 µg/mL; Minimum Inhibitory Concentration (M.I.C.) [11]: 16 µg/mL; Minimum Inhibitory Concentration (M.I.C.) [12]: 16 µg/mL; Minimum Inhibitory Concentration (M.I.C.) [13, 24]: 1 µg/mL; Minimum Inhibitory Concentration (M.I.C.) ([14]; Staph. aureus A9606 (Pen-Res)): .5 µg/mL; Minimum Inhibitory Concentration (M.I.C.) [15]: > 125 µg/mL; Minimum Inhibitory Concentration (M.I.C.) [16]: 1 µg/mL; Minimum Inhibitory Concentration (M.I.C.) [17]: .5 µg/mL; Minimum Inhibitory Concentration (M.I.C.) [18]: 63 µg/mL; Minimum Inhibitory Concentration (M.I.C.) [19]: 63 µg/mL; Minimum Inhibitory Concentration (M.I.C.) ([20]; Enterobacter cloacae A9656): > 125 µg/mL"
